Laboratory results reported in patent US20230050846A1, “TREATMENT OF HEPATIC AND CARDIOVASCULAR DISORDERS” (LIFESEARCH, priority 2019, published 2023).
Peptide text beside a SMILES is read from it. * marks the point of attachment. Palmitoyl = CCCCCCCCCCCCCCCC(=O)*

How the values were obtained:
human F1Fo-ATPase [1] = molecular target: T1, human F1Fo-ATPase (Homo sapiens, UniProt P06576); assay: F1-ATPase activity assay (NADH-coupled, purified enzyme); assay type: biochemical; settings: 1 μM
T1 construct: Human F1Fo-ATPase was purified from HepG2 cells by immunocapture; endogenous in cells; host or cells: HepG2 cells; complex isolated by immunocapture with anti-ATP synthase antibody 12F4AD8AF8 (#ab109867, Abcam)
Description: The mature human IF1 protein (SEQ ID NO: 5) was chemically synthesized by GenScript (Piscataway, N.J., USA) at >80% purity. The peptides derived from the mature human IF1 sequence (IF1-1-60, IF1-10-56, IF1-10-47) were produced by BachemAG (Bubendorf, Switzerland) with >90% purity.
Human F1Fo-ATPase was purified from HepG2 cells by immunocapture using mouse monoclonal anti-ATP synthase antibody (12F4AD8AF8, #ab109867, Abcam) according to manufacturer's instructions.
Measurement of F1-ATPase activity was assayed as previously described. Briefly, 10 μg of F1Fo-ATPase was prepared into 50 μL of activity assay buffer (10 mM HEPES, 150 mM NaCl, 5 mM KCl, 5 mM MgCl2, 0.5 mM phosphoenolpyruvate, 250 μM NADH, 100 μM ATP, 20 U lactate dehydrogenase, 120 U pyruvate kinase). The mixture was incubated at 37° C. for 30 min. Then the F1-ATPase activity was measured in a 96-well microplate by adding 5 μL of the mixture (1 μg of F1Fo-ATPase per point) per well to 200 μL of activity assay buffer at 37° C., and by adding 5 μL of buffer with or without peptide (1 μM each). The reduction in the absorbance of NADH was measured at 340 nm for 5 min with a Varioskan™ Flash Multimode Reader (Thermo Fisher Scientific). A slope was calculated for each well and the results expressed as a percentage of the control slope.

human F1Fo-ATPase [2] = molecular target: T1, human F1Fo-ATPase; assay: Surface plasmon resonance (SPR) binding to purified human F1Fo-ATPase; settings: SPR single-cycle kinetics; His-tag / biotin variant of peptide immobilized, F1Fo-ATPase as analyte; read-out: KD (affinity between F1Fo-ATPase and immobilized peptide)
Description: Surface plasmon resonance (SPR) assays. Binding studies based on SPR technology were performed on a BIAcore T200 optical biosensor instrument (GE Healthcare®, Uppsala, Sweden). The peptide of formula (I) with C-terminal 6×His-tag (Formula (I)-His-tag: CH3CO-[SEQ ID NO: 1]-HHHHHH) and the peptide of formula (II) with C-terminal biotin (Formula (II)-Biotin: CH3CO-[SEQ ID NO: 1]-K-[palmitoyl]-AEEAc-K-[biotinyl]-NH2) were custom-synthesized by BACHEM AG (Bubendorf, Switzerland) with >90% purity in trifluoroacetate salt. Human F1Fo-ATPase was purified from HepG2 cells by immunocapture using mouse monoclonal anti-ATP synthase antibody (12F4AD8AF8, #ab109867, Abcam) according to manufacturer's instructions.
Immobilization of the peptide of formula (I)-6His-tag was performed on a nitrilotriacetic acid (NTA) sensorchip in HBS-P+ buffer (10 mM Hepes pH 7.4, 150 mM NaCl, and 0.05% surfactant P20) (GE Healthcare). To saturate the NTA surface with Ni2^+, flow cells (Fc) were loaded with 0.5 mM NiCl2 solution. The channel Fc1 was left empty and used as a reference surface for nonspecific binding measurements. Formula (I)-6×His was injected in the channel Fc2 at a flow-rate of 5 μL/min and stabilized by amine coupling (Laboratory guideline 29-0057-17 AB). The total amount of immobilized Formula (I)-His-tag was 300-350 resonance units (RU): final concentration 25 μg/mL. […]

HepG2 cells = assay: Oleate/palmitate-induced steatosis, intracellular triglyceride content; assay type: cell-based, human; settings: 1 μM, last 24 h of 48 h oleate/palmitate 0.5 mM (2:1)
Description: A solution containing 250 mM palmitate (P0500, Sigma-Aldrich) was first prepared in 0.1 M NaOH at 70 C for 30 min then diluted in DMEM low glucose (D5546, Sigma-Aldrich) containing 10% fatty acid-free BSA (A7030, Sigma-Aldrich) to yield a 10 mM palmitate solution and allowed to dissolve for 30 min at 37° C., filter sterilized and stored in glass vial at −20 C until use. This palmitate stock solution and ready to use oleate solution (03008, Sigma-Aldrich) were used to prepared a 0.5 mM solution at a 2:1 ratio of oleate to palmitate in complete culture medium containing DMEM low glucose, 10% fetal bovine serum, 1% Penicillin-Streptomycin and 1% fatty acid-free BSA.
HepG2 cell were grown in 12-well plates to 60-70% confluence then exposed for 48 h to culture medium (DMEM low glucose, 10% fetal bovine serum, 1% Penicillin-Streptomycin and 1% fatty acid-free BSA) alone or containing 0.5 mM oleate/palmitate mixture (2:1) to induce steatosis. For the last 24 h of the 48 h period, cells were treated with 1 μM of the peptide of formula (I) or the peptide of formula (II).
For measurement of intracellular triglyceride content, cells were washed with PBS and scraped in 5% NP-40 lysis buffer and heated for 10 min at 85° C. Triglycerides were then quantified using triglyceride commercial kit (Biolabo #87319). Values were normalized to protein concentration in cell lysates.

Row | Compound | stimulation of F1-ATPase activity (human F1Fo-ATPase [1]) [%] | Kd (human F1Fo-ATPase [2]) [nM] | reduction of fatty acid-induced intracellular accumulation of triglycerides compared to PBS control (HepG2 cells) [%]
1 | CCCCCCCCCCCCCCCC(=O)NCCCC[C@H](NC(=O)[C@H](CCC(=O)O)NC(=O)[C@H](CCCNC(=N)N)NC(=O)[C@H](CO)NC(=O)[C@H](CCC(N)=O)NC(=O)[C@H](C)NC(=O)[C@H](CCCNC(=N)N)NC(=O)[C@H](Cc1ccccc1)NC(=O)[C@H](Cc1ccc(O)cc1)NC(=O)[C@H](CCCNC(=N)N)NC(=O)[C@H](CCC(=O)O)NC(=O)[C@H](CCC(=O)O)NC(=O)[C@H](CCC(=O)O)NC(=O)[C@H](C)NC(=O)[C@H](CCC(N)=O)NC(=O)[C@H](CCC(=O)O)NC(=O)[C@H](CCCNC(=N)N)NC(=O)[C@H](CCCCN)NC(=O)CNC(=O)[C@H](Cc1ccccc1)NC(=O)[C@H](C)NC(=O)CNC(=O)CNC(=O)[C@H](C)NC(=O)[C@H](CCC(=O)O)NC(=O)[C@H](CCCNC(=N)N)NC(=O)[C@@H](NC(=O)[C@H](CO)NC(=O)CNC(=O)[C@H](C)NC(=O)CNC(=O)[C@H](CCCNC(=N)N)NC(C)=O)[C@@H](C)CC)C(N)=O [peptide of formula (II), CH3CO-[SEQ ID NO: 1]-K-[palmitoyl]-NH2] (Ac-RGAGSIREAGGAFGKREQAEEERYFRAQSREK(Palmitoyl)-NH2) | 43 | 4.45 | 32
2 | Ac-RGAGSIREAGGAFGKREQAEEERYFRAQSRE-NH2 [peptide of formula (I), CH3CO-[SEQ ID NO: 1]-NH2] | 36 | 19 | 18
